Results on one compound are retold here after patent publication US20250059153A1, “BICYCLIC QUINONES, PHARMACEUTICAL COMPOSITIONS, AND THERAPEUTIC APPLICATIONS” (priority 2022, published 2025).

This experiment has as its system Trypanosoma cruzi trypomastigote. Put plainly: Antiparasitic activity against Trypanosoma cruzi trypomastigote (viability by mobility under optical microscope). In kind it is cell-based. To be noted: LLC-MK2, trypomastigotes from infected LLCMK2 cells, 1×10^7 parasites/mL, 24 h at 37° C. As to the method:
Antiparasitic Activity Against Trypanosoma cruzi
To evaluate antiparasitic activity against Trypanosoma cruzi trypomastigote, parasites were obtained from the supernatant of infected LLCMK2 cells. Trypomastigote (1×10^7 parasites/mL) was resuspended in DMEM supplemented with 10% FBS. The parasites were incubated in the presence of a compound at 500, 200, 100, 50, 10, 5, 1, 0.5, and 0.25 μM in 96-well plates for 24 h at 37° C. with 5% CO2. After incubation, the viability of the parasites was determined by examining mobility under an optical microscope. See, e.g., Brener, Rev. Inst. Med. Trop. São Paulo. 1962, 4, 389-96.

Usually EC50 stands for the concentration that produces a half-maximal response. Read a high EC50 as lower potency in that assay. The compound `Cc1cc(=O)c2occoc=2c1=O` [Compound A1, 6-methylbenzo[b][1,4]dioxine-5,8-dione] returned an EC50 of 2300 ± 300 nM.
